Test results from EP0343367A1, “Mercapto-compounds having mucolytic action and a process for their preparation” (CAMILLO CORVI S.p.A., priority 1988, dated 1989).
Read-outs that look alike come from different tables or passages of the source.

Tests used:
healthy rabbit = assay: Production of mucus in the healthy rabbit (method of R. Scuri et al.); format: in vivo; conditions: Oryctolagus cuniculus, administration route: oral
Description: (§1) The following table indicates e.g. the bronchial secretion stimulating and mucolytic activity of the compound 10 (R⁴=H, R⁵=OH) as compared to sobrerol.

rat = assay: Expectorating activity in the rat (method of K. Kogi et al.); format: in vivo; conditions: os, read-out: Expectorating activity in the rat, ED₅₀ os
Description: as §1

[1] = read-out: Production of mucus in the healthy rabbit: No.of animals/increase, ED₅₀
[2] = read-out: Production of mucus in the healthy rabbit: Production of mucus, ED₅₀

Structure (SMILES)	ED50 (healthy rabbit; [1])	ED50 (healthy rabbit; [2])	ED50 (rat)
CC(C)(O)C1CC=C(CS)C(O)C1 (stereo not drawn) [Compound 10, 2-hydroxy-4-(1-hydroxy-1-methylethyl)-6-cyclohexene-1-methanethiol]	400 mg/kg	400 mg/kg	100 mg/kg
CC1=CCC(C(C)(C)O)CC1O (stereo not drawn) [Sobrerol]	500 mg/kg	500 mg/kg	40 mg/kg
